The values that follow come from the NIST ThermoML archive (doi:10.1021/je200868y).

± gives the expanded uncertainty stated by the source.

For this data set the following is noted: Liquid; for mass density: 298.15 K, 101.33 kPa, Vibrating tube method.

By mass density is commonly meant the mass of a sample divided by its volume. A word on the vapor or sublimation pressure: it is the pressure of vapour in equilibrium with the condensed phase.

On to `CCCCCC(=O)OCC` [ethyl hexanoate], for which the mass density was 865.59 ± 0.11 kg/m3. Moreover, the “vapor or sublimation pressure” value (408.31 K) turned out to be 40 ± 1.5 kPa. Moreover, the “vapor or sublimation pressure” value (417.74 K) was 53.33 ± 2 kPa. Also, under “425.39 K”, the “vapor or sublimation pressure” value turned out to be 66.66 ± 2.4 kPa. Besides, the “vapor or sublimation pressure” value (431.86 K) is 79.99 ± 2.8 kPa. In addition, the “vapor or sublimation pressure” value (437.53 K) stood at 93.32 ± 3.2 kPa. Where the note is “440.57 K”, the “vapor or sublimation pressure” value was found to be 101.3 ± 3.4 kPa.
As for `Cc1ccc(C)cc1` [1,4-dimethylbenzene], the mass density is recorded as 856.68 ± 0.12 kg/m3. For the same molecule, for the setting “379.81 K”, the “vapor or sublimation pressure” value is listed as 40 ± 1.5 kPa. The “vapor or sublimation pressure” value (388.96 K) was found to be 53.33 ± 2 kPa. In addition, under “396.45 K”, the “vapor or sublimation pressure” value is 66.66 ± 2.4 kPa. For the same molecule, for the setting “402.82 K”, the “vapor or sublimation pressure” value turned out to be 79.99 ± 2.8 kPa. The “vapor or sublimation pressure” value (408.4 K) amounted to 93.32 ± 3.2 kPa. For the same molecule, for the setting “411.48 K”, the “vapor or sublimation pressure” value was 101.3 ± 3.4 kPa.
As for `CCO` [ethanol], the mass density came to 785.18 ± 0.15 kg/m3. Further, the “vapor or sublimation pressure” value (329.69 K) came out at 40 ± 1.5 kPa. The “vapor or sublimation pressure” value (336.07 K) is given as 53.33 ± 2 kPa. For the same molecule, the “vapor or sublimation pressure” value (341.23 K) was 66.66 ± 2.4 kPa. Also, under “345.6 K”, the “vapor or sublimation pressure” value worked out at 79.99 ± 2.8 kPa. For the same molecule, the “vapor or sublimation pressure” value (349.39 K) came to 93.32 ± 3.2 kPa. The “vapor or sublimation pressure” value (351.44 K) came out at 101.3 ± 3.4 kPa.
